Experimental data as given in patent US9938273B2 (Plexxikon Inc., priority 2015, dated 2018).

Each compound was assayed against T1, FLT3-ITD (Homo sapiens, UniProt P36888) (assay: AlphaScreen kinase assay with recombinant enzyme, FLT3-ITD). Conditions: 8pt; read-out: FLT3_ITD 8pt: IC50.
T1 sequence (P36888 1-993): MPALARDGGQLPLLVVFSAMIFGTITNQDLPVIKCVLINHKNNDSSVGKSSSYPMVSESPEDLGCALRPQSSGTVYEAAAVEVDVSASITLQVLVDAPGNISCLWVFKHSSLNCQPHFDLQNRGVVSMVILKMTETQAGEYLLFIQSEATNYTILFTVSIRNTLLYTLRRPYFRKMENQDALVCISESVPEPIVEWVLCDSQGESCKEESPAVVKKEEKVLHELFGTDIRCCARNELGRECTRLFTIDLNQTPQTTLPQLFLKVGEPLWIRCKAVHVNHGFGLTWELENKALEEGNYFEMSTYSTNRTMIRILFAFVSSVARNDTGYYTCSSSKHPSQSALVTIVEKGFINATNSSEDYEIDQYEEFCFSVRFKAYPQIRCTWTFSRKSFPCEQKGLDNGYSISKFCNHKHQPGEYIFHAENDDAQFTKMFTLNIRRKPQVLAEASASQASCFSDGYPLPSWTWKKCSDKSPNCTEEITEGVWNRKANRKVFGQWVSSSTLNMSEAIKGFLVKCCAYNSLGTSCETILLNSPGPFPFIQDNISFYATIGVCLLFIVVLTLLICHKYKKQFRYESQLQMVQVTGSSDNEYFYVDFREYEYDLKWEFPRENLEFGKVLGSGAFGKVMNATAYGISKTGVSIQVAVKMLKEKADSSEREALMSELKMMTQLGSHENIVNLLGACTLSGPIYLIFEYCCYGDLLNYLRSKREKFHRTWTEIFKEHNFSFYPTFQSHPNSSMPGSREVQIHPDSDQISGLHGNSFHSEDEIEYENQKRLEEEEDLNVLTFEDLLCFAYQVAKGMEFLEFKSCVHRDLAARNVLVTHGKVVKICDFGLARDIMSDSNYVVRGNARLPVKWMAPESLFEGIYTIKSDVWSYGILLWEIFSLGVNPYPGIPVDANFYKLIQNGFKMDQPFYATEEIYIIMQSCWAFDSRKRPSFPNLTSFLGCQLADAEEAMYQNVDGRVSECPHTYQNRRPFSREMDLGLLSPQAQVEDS
Format: biochemical
Summary of the method: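 Tyrosine phosphorylation of biotin-poly(Glu4-Tyr) substrate by recombinant enzyme is detected with PY20 acceptor and streptavidin donor beads after room-temperature incubations of 20 and 60 min. IC50 values were derived at a final 10 μM (FLT3-D835Y, FLT3-ITD) or 100 μM (c-KIT).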

Structure (SMILES)	IC50 [µM]
CNC1CCN(C(=O)c2n[nH]c3ccc(-c4cnc5[nH]c(-c6ccccc6)cc5c4)cc23)CC1 [Compound P-0044, [4-(methylamino)-1-piperidyl]-[5-(2-phenyl-1H-pyrrolo[2,3-b]pyridin-5-yl)-1H-indazol-3-yl]methanone]	0.0001 to 10
O=C(NC1CCNC1)c1cccc(-c2cnc3[nH]c(-c4ccccc4)cc3c2)n1 (stereo not drawn) [Compound P-0045, 6-(2-phenyl-1H-pyrrolo[2,3-b]pyridin-5-yl)-N-pyrrolidin-3-yl-pyridine-2-carboxamide]	0.0001 to 10
N[C@H]1CCN(C(=O)c2cc(-c3cnc4[nH]c(-c5ccccc5)cc4c3)ccn2)C1 [Compound P-0046, [(3S)-3-aminopyrrolidin-1-yl]-[4-(2-phenyl-1H-pyrrolo[2,3-b]pyridin-5-yl)-2-pyridyl]methanone]	0.0001 to 10
NC1CCC(C(=O)N2Cc3c(cccc3-c3cnc4[nH]c(-c5ccccc5)cc4c3)C2=O)C1 (stereo not drawn) [Compound P-0047, 2-(3-aminocyclopentanecarbonyl)-4-(2-phenyl-1H-pyrrolo[2,3-b]pyridin-5-yl)isoindolin-1-one]	0.0001 to 10
N[C@H]1CCN(C(=O)c2csc(-c3cnc4[nH]c(-c5ccccc5)cc4c3)n2)C1 [Compound P-0048, [(3S)-3-aminopyrrolidin-1-yl]-[2-(2-phenyl-1H-pyrrolo[2,3-b]pyridin-5-yl)thiazol-4-yl]methanone]	0.0001 to 10
c1ccc(-c2cc3cc(-c4ccc5[nH]nc(NC6CNC6)c5c4)cnc3[nH]2)cc1 [Compound P-0053, N-(azetidin-3-yl)-5-(2-phenyl-1H-pyrrolo[2,3-b]pyridin-5-yl)-1H-indazol-3-amine]	0.0001 to 10
c1ccc(-c2cc3cc(-c4ccc5[nH]nc(NC6CCNCC6)c5c4)cnc3[nH]2)cc1 [Compound P-0056, 5-(2-phenyl-1H-pyrrolo[2,3-b]pyridin-5-yl)-N-(4-piperidyl)-1H-indazol-3-amine]	0.0001 to 10
N=C(N)N1CCN(C(=O)c2cccc(-c3cnc4[nH]c(-c5ccccc5)cc4c3)n2)CC1 [Compound P-0057, 4-[6-(2-phenyl-1H-pyrrolo[2,3-b]pyridin-5-yl)pyridine-2-carbonyl]piperazine-1-carboxamidine]	0.0001 to 10
c1ccc(-c2cc3cc(-c4ccc5[nH]nc(NC6CCNC6)c5c4)cnc3[nH]2)cc1 (stereo not drawn) [Compound P-0059, 5-(2-phenyl-1H-pyrrolo[2,3-b]pyridin-5-yl)-N-pyrrolidin-3-yl-1H-indazol-3-amine]	0.0001 to 10
NC1CCCN(C(=O)c2cccc(-c3cnc4[nH]c(-c5ccccc5)cc4c3)n2)C1 (stereo not drawn) [Compound P-0067, (3-amino-1-piperidyl)-[6-(2-phenyl-1H-pyrrolo[2,3-b]pyridin-5-yl)-2-pyridyl]methanone]	0.0001 to 10
O=C(c1cccc(-c2cnc3[nH]c(-c4ccccc4)cc3c2)n1)N1CCC(O)C1 (stereo not drawn) [Compound P-0068, (3-hydroxypyrrolidin-1-yl)-[6-(2-phenyl-1H-pyrrolo[2,3-b]pyridin-5-yl)-2-pyridyl]methanone]	0.0001 to 10
O=C(c1cccc(-c2cnc3[nH]c(-c4ccccc4)cc3c2)n1)N1CCCC(O)C1 (stereo not drawn) [Compound P-0069, (3-hydroxy-1-piperidyl)-[6-(2-phenyl-1H-pyrrolo[2,3-b]pyridin-5-yl)-2-pyridyl]methanone]	0.0001 to 10
NC1CCN(C(=O)c2n[nH]c3ccc(-c4cnc5[nH]c(C6=CCN(C(=O)C7CC7)C6)cc5c4)cc23)CC1 [Compound P-0074, (4-amino-1-piperidyl)-[5-[2-[1-(cyclopropanecarbonyl)-2,5-dihydropyrrol-3-yl]-1H-pyrrolo[2,3-b]pyridin-5-yl]-1H-indazol-3-yl]methanone]	0.0001 to 10

Next, values leading:

IC50 [µM]	Structure (SMILES)
0.0001 to 10	CN(C(=O)c1cccc(-c2cnc3[nH]c(-c4ccccc4)cc3c2)n1)C1CCNC1 (stereo not drawn) [Compound P-0076, N-methyl-6-(2-phenyl-1H-pyrrolo[2,3-b]pyridin-5-yl)-N-pyrrolidin-3-yl-pyridine-2-carboxamide]
0.0001 to 10	CNC1CCCN(C(=O)c2cccc(-c3cnc4[nH]c(-c5ccccc5)cc4c3)n2)C1 (stereo not drawn) [Compound P-0080, [3-(methylamino)-1-piperidyl]-[6-(2-phenyl-1H-pyrrolo[2,3-b]pyridin-5-yl)-2-pyridyl]methanone]
0.0001 to 10	CC1(N)CCN(C(=O)c2cccc(-c3cnc4[nH]c(-c5ccccc5)cc4c3)n2)CC1 [Compound P-0081, (4-amino-4-methyl-1-piperidyl)-[6-(2-phenyl-1H-pyrrolo[2,3-b]pyridin-5-yl)-2-pyridyl]methanone]
0.0001 to 10	CC1(N)CCCN(C(=O)c2cccc(-c3cnc4[nH]c(-c5ccccc5)cc4c3)n2)C1 (stereo not drawn) [Compound P-0082, (3-amino-3-methyl-1-piperidyl)-[6-(2-phenyl-1H-pyrrolo[2,3-b]pyridin-5-yl)-2-pyridyl]methanone]
0.0001 to 10	N[C@@H]1CN(C(=O)c2cccc(-c3cnc4[nH]c(-c5ccccc5)cc4c3)n2)CC12CC2 [Compound P-0083, [(7S)-7-amino-5-azaspiro[2.4]heptan-5-yl]-[6-(2-phenyl-1H-pyrrolo[2,3-b]pyridin-5-yl)-2-pyridyl]methanone]
0.0001 to 10	CNC1CCN(Cc2cccc(-c3cnc4[nH]c(-c5ccccc5)cc4c3)n2)C1 (stereo not drawn) [Compound P-0087, N-methyl-1-[[6-(2-phenyl-1H-pyrrolo[2,3-b]pyridin-5-yl)-2-pyridyl]methyl]pyrrolidin-3-amine]
0.0001 to 10	O=C(c1cccc(-c2cnc3[nH]c(-c4ccccc4)cc3c2)n1)N1CCC(F)(F)CC1 [Compound P-0089, (4,4-difluoro-1-piperidyl)-[6-(2-phenyl-1H-pyrrolo[2,3-b]pyridin-5-yl)-2-pyridyl]methanone]
0.0001 to 10	COC(=O)C1(C)CCN(C(=O)c2cccc(-c3cnc4[nH]c(-c5ccccc5)cc4c3)n2)CC1 [Compound P-0092, methyl 4-methyl-1-[6-(2-phenyl-1H-pyrrolo[2,3-b]pyridin-5-yl)pyridine-2-carbonyl]piperidine-4-carboxylate]
